Laboratory results reported in patent US20040074621A1, “Method for reducing slime production and mixture making the same” (Yuen Foong Yu Paper MFG Co., Ltd., priority 2002, published 2004).

Assays:
[1] = tested on: culture isolated from the slime; assay: The track experiment of periodically adding the antagonistic; type: cell-based
Protocol: Cultures which are isolated from the slime are cultivated in a NB cultivation liquid for 21-24 hours. Then, 1 mL culture liquids of the isolated cultures are centrifuged in 15000 rpm for 1 min and the supernatants thereof are removed. All the isolated cultures are re-suspended by adding 1 mL sterile water, and then each re-suspended culture is inoculated into a flask which already contains sterile white water 100 mL and 3 g LBKP pulp. Later, different dispersing agents are added into different flasks of each kind of culture to obtain different mixtures. The mixtures are cultivated in an incubate shaker at 40° C. 70 rpm. After being mixture cultivated for 3 hours, 3 mL antagonistic C5 (Streptomyces bikiniensis) which has been amounted to 10^7/L after being cultivated for 24 hours is added thereinto to obtain another mixture. The mixture are cultivated in the incubate shaker again at 40° C. 70 rpm. […] Then, the final deposit amount after another 7 days (total 14 days) is also recorded. The whole experiment is separated into four groups. […] There are two experimental group: 3: Only incubate the culture isolated from the slime without incubating the antagonistic C5; and 4: Incubate both the culture isolated from the slime and the antagonistic C5. The groups described above are double checked and all experiments are repeated at least once. Deposit % is calculated by the formula as follows: [formula]

[2] = tested on: culture isolated from the slime; assay: The effect of the antagonistic and the dispersing agent on the formation of the deposit; type: cell-based; details: after 7 days
Protocol: Cultures which are isolated from the slime are cultivated in a NB cultivation liquid for 21-24 hours. Then, 1 mL culture liquids of the isolated cultures are centrifuged in 15000 rpm for 1 min and the supernatants thereof are removed. All the isolated cultures are re-suspended by adding 1 mL sterile water, and then each re-suspended culture is inoculated into a flask which already contains sterile white water 100 mL and 3 g LBKP pulp. Later, different dispersing agents are added into different flasks of each kind of culture to obtain different mixtures. The mixtures are cultivated in an incubate shaker at 40° C. 70 rpm. After being mixture cultivated for 3 hours, 3 mL antagonistic C5 (Streptomyces bikiniensis) which has been amounted to 10^7/mL after being cultivated for 24 hours is added thereinto to obtain another mixture. The mixture are cultivated in the incubate shaker again at 40° C., 70 rpm. After 7 days, the production of the deposit is recorded. The whole experiment is separated into six groups. […] There are four experimental group: 3: Only incubate the culture isolated from the slime without incubating the antagonistic C5; 4: Incubate both the culture isolated from the slime and the antagonistic C5; 5: Incubate the culture isolated from the slime and the dispersing agent; and 6: Incubate the culture isolated from the slime, the dispersing agent, and the antagonistic C5. The groups described above are double checked and all experiments are repeated at least once. Deposit % is calculated by the formula as follows: [formula]

[3] = contrast group: only antagonistic C5, without the culture isolated from the slime
[4] = isolated culture in sterile white water 100 mL + 3 g LBKP pulp, 40° C. 70 rpm, culture isolated from slime alone = 100%

Substance	Deposit % (Day 7) [1, 3] [%]	Deposit % (Day 14) [1, 3] [%]	Deposit % (Day 14) ([1]; culture isolated from slime + antagonistic C5, antagonistic C5 re-added at Day 7) [%]	Deposit % (Day 14) ([1]; culture isolated from slime + antagonistic C5 added once, not re-added, culture alone = 100%) [%]	Deposit % (Day 7) ([1]; culture isolated from slime + antagonistic C5 added once, culture alone = 100%) [%]	Deposit (%) of the slime [2, 3] [%]	Deposit (%) of the slime [2, 4] [%]
Streptomyces bikiniensis [Antagonistic C5]	31.0	35.0	28	87	29	24.7	53.0
Di-alkyl sulfosuccinate [dispersing agent S100]	–	–	–	–	–	–	53
